Assay results taken from patent publication US5047402A, “Cyclic amides as medicaments” (ICI Americas Inc., priority 1989, dated 1991).

Biological target: T1, LTD4 /E4 receptors (Cavia porcellus, UniProt Q2NNR5)
T1 construct: membrane fractions, containing the LTD4 /E4 receptors, are prepared from guinea-pig lung parenchyma; from tissue; host or cells: guinea-pig lung parenchyma membrane fractions
T1 sequence (Q2NNR5 1-340): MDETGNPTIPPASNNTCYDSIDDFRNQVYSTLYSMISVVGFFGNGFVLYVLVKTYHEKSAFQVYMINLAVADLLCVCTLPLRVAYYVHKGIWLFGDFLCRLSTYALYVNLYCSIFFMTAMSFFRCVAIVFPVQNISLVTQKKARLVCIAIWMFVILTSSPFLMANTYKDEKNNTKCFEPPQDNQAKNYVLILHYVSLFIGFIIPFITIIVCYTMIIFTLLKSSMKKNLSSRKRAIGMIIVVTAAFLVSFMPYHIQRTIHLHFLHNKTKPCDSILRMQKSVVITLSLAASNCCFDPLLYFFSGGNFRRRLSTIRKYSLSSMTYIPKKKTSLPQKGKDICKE
Assay: receptor-ligand binding assay with 3H-LTD4 on guinea-pig lung parenchyma membrane fractions
Conditions: 1nM 3H-LTD4, 30 minutes at 22° C., Ki calculated from IC50 by the Cheng-Prusoff equation
Procedure: According to this procedure, membrane fractions, containing the LTD4 /E4 receptors, are prepared from guinea-pig lung parenchyma and incubated for 30 minutes at 22° C. with 1nM ^3 H-LTD4 in the absence or presence of tested antagonist. Specific binding, determined under conditions that prevent enzymatic metabolism of ^3 H-LTD4, is the net result of total ^3 H-LTD4 binding minus nonspecific binding determined in the presence of 1-2000 fold excess unlabelled LTD^4. Each assay is done in duplicate and results (Ki values) are typically a mean of several such determinations in individual receptor batches.
The % inhibition by a tested antagonist, relative to control binding (vehicle alone), is expressed as a fraction of log[antagonist] concentration (in molar units) and the half-maximal inhibition (IC50) determined by computerized non-linear least-square analysis. The binding constant (Ki) is then calculated from IC50 by the Cheng-Prusoff equation: [formula] where [L] is ^3 H-LTD4 concentraton and Kd is the affinity constant of LTD4 to this receptor, determined separately for each batch. (Biochem. Pharmacol. 22: 3099-3108, 1973).

Ki: 1 nM
SMILES: CCCN1CCC(Cc2ccc3c(c2)c(Cc2ccc(C(=O)NS(=O)(=O)c4ccccc4C)cc2OC)cn3CCC)C1=O (stereo not shown) [Example 1, 3-Methoxy-N-(2-methylphenylsulfonyl)-4-[1-propyl-5-(1-propyl-2-oxopyrrolidin-3-ylmethyl)indol-3-ylmethyl]benzamide]
